{"source": "paper PMC11321617", "about": "(Advanced Science, 2024)", "key": {"[1]": {"tested_on": "Salmonella typhimurium SL1344", "experiment": "MIC assay (microplate broth dilution)", "format": "cell-based", "conditions": "Salmonella enterica, 18 h", "method": "(§1) The MICs of the peptides were determined using the microplate broth dilution method.^[ [32] ^] The bacteria in the mid‐log phase were diluted to 5 × 10^5 colony forming units (CFU) mL^−1 in TSB. 100 µL of serially diluted peptide solution and 100 µL of diluted bacteria were put to a sterile 96‐well plate."}, "[2]": {"tested_on": "Enterococcus faecalis 4P‐SA", "experiment": "microbe, parasite or virus in culture", "format": "cell-based", "conditions": "broth dilution, TSB, 5 × 10^5 CFU mL^−1, 18 h, 37 °C", "method": "as §1"}, "[3]": {"tested_on": "Enterococcus faecalis ATCC51299", "experiment": "microbe, parasite or virus in culture", "format": "cell-based", "conditions": "ATCC51299, 18 h", "method": "as §1"}, "Klebsiella pneumoniae K7": {"tested_on": "Klebsiella pneumoniae K7", "experiment": "microbe, parasite or virus in culture", "format": "cell-based", "conditions": "broth dilution, TSB, 5 × 10^5 CFU mL^−1, 18 h, 37 °C", "method": "as §1"}, "[4]": {"tested_on": "Methicillin‐Resistant Staphylococcus aureus USA300", "experiment": "microbe, parasite or virus in culture", "format": "cell-based", "conditions": "broth dilution, TSB, 5 × 10^5 CFU mL^−1, 18 h, 37 °C, MRSA USA300", "method": "as §1"}, "[5]": {"tested_on": "Pseudomonas aeruginosa ATCC 27853", "experiment": "microbe, parasite or virus in culture", "format": "cell-based", "conditions": "ATCC27853, broth dilution, TSB, 5 × 10^5 CFU mL^−1, 18 h, 37 °C", "method": "as §1"}, "[6]": {"tested_on": "Salmonella pullorum ATCC19945", "experiment": "microbe, parasite or virus in culture", "format": "cell-based", "conditions": "Salmonella enterica, broth dilution, TSB, 5 × 10^5 CFU mL^−1, 18 h, 37 °C", "method": "as §1"}, "[7]": {"tested_on": "Staphylococcus aureus ATCC25904", "experiment": "microbe, parasite or virus in culture", "format": "cell-based", "conditions": "broth dilution, TSB, 5 × 10^5 CFU mL^−1, 18 h, 37 °C", "method": "as §1"}, "[8]": {"tested_on": "Staphylococcus aureus ATCC25923", "experiment": "microbe, parasite or virus in culture", "format": "cell-based", "conditions": "broth dilution, TSB, 5 × 10^5 CFU mL^−1, 18 h, 37 °C", "method": "as §1"}, "[9]": {"tested_on": "Staphylococcus aureus ATCC29213", "experiment": "microbe, parasite or virus in culture", "format": "cell-based", "conditions": "broth dilution, TSB, 5 × 10^5 CFU mL^−1, 18 h, 37 °C", "method": "as §1"}, "[10]": {"tested_on": "Staphylococcus epidermidis YYF‐771", "experiment": "microbe, parasite or virus in culture", "format": "cell-based", "conditions": "broth dilution, TSB, 5 × 10^5 CFU mL^−1, 18 h, 37 °C", "method": "as §1"}, "Bacillus subtilis BL‐4": {"tested_on": "Bacillus subtilis BL‐4", "experiment": "microbe, parasite or virus in culture", "conditions": "18 h", "method": "as §1"}, "[11]": {"tested_on": "Listeria monocytogenes 10403S", "experiment": "microbe, parasite or virus in culture", "conditions": "18 h", "method": "as §1"}, "[12]": {"tested_on": "Listeria monocytogenes ATCC19115", "experiment": "microbe, parasite or virus in culture", "conditions": "ATCC19115, 18 h", "method": "as §1"}, "[13]": {"tested_on": "Listeria monocytogenes EGD", "experiment": "microbe, parasite or virus in culture", "conditions": "18 h", "method": "as §1"}, "Escherichia coli O157:H7": {"tested_on": "Escherichia coli O157:H7", "format": "cell-based", "conditions": "broth dilution, TSB, 5 × 10^5 CFU mL^−1, 18 h, 37 °C", "method": "as §1"}, "E. coli O157:H7": {"tested_on": "E. coli O157:H7", "experiment": "Time‐kill kinetics", "format": "cell-based, Escherichia coli", "conditions": "4 × MIC, 1 × 10^5 CFU mL^−1 E. coli O157:H7, 37 °C; n = 3", "method": "During the logarithmic growth phase, 1 × 10^5 CFU mL^−1 of E. coli O157:H7 was diluted in 1 mL, the peptides were incubated with the bacterial solution for several intervals.^[ [42] ^] The solution was diluted to a suitable ratio and evenly distributed across the TSB agar plates. Before being counted, colonies were cultured for one night at 37 °C."}, "[14]": {"tested_on": "persisters induced from E. coli", "experiment": "Bactericidal activity against persisters", "format": "cell-based, Escherichia coli", "conditions": "colistin at 4 × MIC (25 µmol L^−1), 24 h; rifampicin‐induced E. coli persisters; n = 3", "method": "Previously recognized and widely used procedures for developing persisters. The bacterial cells, with a turbidity of 0.8 at 600 nm, were obtained in the mid‐log phase. The culture was cultured at 37 °C for 30 min after 100 µg mL^−1 rifampicin (Macklin, Shanghai, China) was added. The rifampicin‐treated culture was centrifuged, and the pellet was resuspended in TSB containing ampicillin (final concentration: 300 µg mL^−1; Macklin, Shanghai, China) to remove nonpersister cells. […] Then cultured for 24 h, spotted on TSB agar, and incubated overnight at 37 °C."}, "[15]": {"tested_on": "diabetic wound infections", "conditions": "cecropin ref 27b, SCIBIOIII ref 28, QHREDGS ref 29, LL‐37 ref 30; cited from earlier work", "excerpt": "A significant concern in diabetic wound infections is the complexity of mixed bacterial infections, contributing to prolonged wound healing times, extended periods of inflammation, and a heightened risk of ulcer recurrence.^[ [26] ^] Naturally, an ointment that eliminates these microorganisms holds enormous promise for treating diabetes patients who have recurring infections and preventing the development of antibiotic resistance and transmission. According to earlier research, this CaAGE hydrogel basis was ideal for the AMPs.^[ [27] ^] in terms of the stability, release profile, and antibacte ..."}, "[16]": {"tested_on": "drug‐resistant Gram‐positive bacterial infections", "conditions": "cited from earlier work", "excerpt": "Conventional screening methods have been unsuccessful in discovering new antibiotics in recent years.^[ [16] ^] Traditional screening sources seem overexploited and tend to produce compounds that are already known. However, uncultured bacteria represent a significant and untapped reservoir of novel natural product frameworks.^[ [17] ^] […] In the context of this ..."}}, "note": "Bridge positions count the residues as written; N and C are the ends. Square brackets hold non-standard residues; d marks the D form. Peptide text beside a SMILES is read from it. * marks the point of attachment. X1 = CC[C@H](C)CCCCC(=O)*; Dab = NCC[C@H](N)C(=O)O"}
{"compound": "CC1(C)S[C@@H]2[C@H](NC(=O)[C@H](N)c3ccccc3)C(=O)N2[C@H]1C(=O)O", "note": "[ampicillin, Ampicillin]", "values": [{"measurement": "MIC", "setting": "[1]", "value": 12.5, "unit": "µM"}, {"measurement": "MIC", "setting": "[2]", "value": "> 71.6", "unit": "µM"}, {"measurement": "MIC", "setting": "[3]", "value": 12.5, "unit": "µM"}, {"measurement": "MIC", "setting": "Klebsiella pneumoniae K7", "value": "> 71.6", "unit": "µM"}, {"measurement": "MIC", "setting": "[4]", "value": 71.6, "unit": "µM"}, {"measurement": "MIC", "setting": "[5]", "value": "> 71.6", "unit": "µM"}, {"measurement": "MIC", "setting": "[6]", "value": 35.8, "unit": "µM"}, {"measurement": "MIC", "setting": "[7]", "value": "> 71.6", "unit": "µM"}, {"measurement": "MIC", "setting": "[8]", "value": 1.57, "unit": "µM"}, {"measurement": "MIC", "setting": "[9]", "value": 1.57, "unit": "µM"}, {"measurement": "MIC", "setting": "[10]", "value": 1.57, "unit": "µM"}, {"measurement": "MIC", "setting": "Bacillus subtilis BL‐4", "value": 1.57, "unit": "µM"}, {"measurement": "MIC", "setting": "[11]", "value": 25, "unit": "µM"}, {"measurement": "MIC", "setting": "[12]", "value": 6.25, "unit": "µM"}, {"measurement": "MIC", "setting": "[13]", "value": 4.5, "unit": "µM"}]}
{"compound": "CC[C@H](C)CCCCC(=O)N[C@@H](CCN)C(=O)N[C@H](C(=O)N[C@@H](CCN)C(=O)N[C@H]1CCNC(=O)[C@H]([C@@H](C)O)NC(=O)[C@H](CCN)NC(=O)[C@H](CCN)NC(=O)[C@H](CC(C)C)NC(=O)[C@@H](CC(C)C)NC(=O)[C@H](CCN)NC1=O)[C@@H](C)O", "note": "[colistin, Colistin] (X1-[Dab]T[Dab][Dab][Dab][dL]L[Dab][Dab]T; lactam 4-C (inferred); N-terminus assumed)", "values": [{"measurement": "MIC", "setting": "Escherichia coli O157:H7", "value": 3.13, "unit": "µM"}, {"measurement": "time to eradicate all E. coli cells", "setting": "E. coli O157:H7", "value": 2, "unit": "h"}, {"measurement": "effect on persisters", "setting": "[14]", "value": "had little effect on the survival"}]}
{"compound": "LL‐37", "values": [{"measurement": "bacterial count reduction / wound healing in diabetic wound infections", "setting": "[15]", "value": "none of these peptides demonstrated the capacity to significantly reduce bacterial counts by ≈3‐log or expedite wound healing within a 10‐day timeframe"}]}
{"compound": "QHREDGS [AMP researched for diabetic wound infections]", "values": [{"measurement": "bacterial count reduction / wound healing in diabetic wound infections", "setting": "[15]", "value": "none of these peptides demonstrated the capacity to significantly reduce bacterial counts by ≈3‐log or expedite wound healing within a 10‐day timeframe"}]}
{"compound": "cecropin", "values": [{"measurement": "bacterial count reduction / wound healing in diabetic wound infections", "setting": "[15]", "value": "none of these peptides demonstrated the capacity to significantly reduce bacterial counts by ≈3‐log or expedite wound healing within a 10‐day timeframe"}]}
{"compound": "clovibactin", "values": [{"measurement": "efficacy", "setting": "[16]", "value": "effectively controlling drug‐resistant Gram‐positive bacterial infections"}]}
